According to publication PMC5974779, “Prediction of Drug-Induced Hepatotoxicity Using Long-Term Stable Primary Hepatic 3D Spheroid Cultures in Chemically Defined Conditions” (Toxicological Sciences, 2018):
Where two headings read alike, the source gives them in different places.

Key:
[1] = cited from earlier work
[2] = system: primary human hepatocytes (PHH) 3D spheroids
[3] = ref DrugBank and Prescribers' Digital Reference database; cited from earlier work
[4] = system: PHH 2D sandwich cultures; conditions: cited from earlier work
[5] = system: clinical DILI in man; conditions: cited from earlier work
[6] = therapeutic total cmax, ref PMID
[7] = PHH 2D sandwich cultures, 100x Cmax, ref Xu 2008
[8] = clinical DILI classification in man (POS/NEG)
[9] = clinical DILI classification used in this study, Supplementary Table 2, ref Chen et al., 2011, Guo et al., 2005, O'Brien et al., 2006, Sakatis et al., 2012, Suzuki et al., 2010, Xu et al., 2008
[10] = clinical DILI classification, Supplementary Table 1, ref Chen et al., 2011, Guo et al., 2005, O'Brien et al., 2006, Sakatis et al., 2012, Suzuki et al., 2010, Xu et al., 2008
[11] = reported pattern of liver damage, Supplementary Table 2, ref literature
[12] = FDA drug labeling DILI score, ref Chen et al., 2011
[13] = clinical DILI classification, ref Xu et al. (2008)

| Compound | Cmax [1, 6] [nM] | Chemically defined spheroids (this study) 20x [2] | Extent of hepatic metabolism [3] | 2Dsw (Xu 2008) 100x [4, 7] | DILI in vivo [5, 8] | Classified as [5, 9] | DILI in vivo [5, 10] | Type of DILI [5, 11] | Classified as ([5]; in vivo) | Clinical DILI class (panel heading of Figure 4) ([5]; in vivo) | DILI in vivo ([5]; in vivo) | Type of DILI ([5]; in vivo) | also measured |
| --- | --- | --- | --- | --- | --- | --- | --- | --- | --- | --- | --- | --- | --- |
| CCC1(c2ccc(N)cc2)CCC(=O)NC1=O (stereo not drawn) [Aminoglutethimide] | 25400 | Negative | Moderate | Negative | NEG | NEG | NEG | Non-hepatotoxic |  |  |  |  |  |
| Clc1ccc2c(c1)C(N1CCNCC1)=Nc1ccccc1O2 [Amoxapine] | 220 | Negative | Extensive | Negative | NEG | NEG | NEG | Non-hepatotoxic |  |  |  |  | hepatotoxicity evaluation in CD-spheroids [2]: not found to be toxic at any concentration tested; FDA (0-8) [5, 12]: 3; Xu et al. (2008) [5, 13]: Negative; Clinical DILI classification (Figure 5) ([5]; structural analogue pairs, Figure 5, ref Chen et al., 2011, Xu et al., 2008 and others): DILI negative |
| Nc1cc(-c2ccncc2)c[nH]c1=O [Amrinone] | 13800 | Negative | Extensive | Negative | POS | POS | POS | Hepatocellular injury |  |  |  |  | FDA (0-8) [5, 12]: 5; Xu et al. (2008) [5, 13]: Positive |
| CN(C)C(=O)Oc1cc(OC(=O)N(C)C)cc(C(O)CNC(C)(C)C)c1 (stereo not drawn) [Bambuterol] | 10 | Negative | Extensive | Negative | NEG | NEG | NEG | Non-hepatotoxic |  |  |  |  |  |
| CC(C)COCC(CN(Cc1ccccc1)c1ccccc1)N1CCCC1 (stereo not drawn) [Bepridil] | 2000 | Positive | Extensive | Positive | POS | POS | POS | Hepatocellular injury |  |  |  |  |  |
| CC(C)(Oc1ccc(CCNC(=O)c2ccc(Cl)cc2)cc1)C(=O)O [Bezafibrate] | 16600 | Negative | Extensive | Negative |  |  |  |  | NEG | DILI negative | NEG | Non-hepatotoxic |  |
| C[C@H](CCC(=O)O)[C@H]1CC[C@H]2[C@@H]3[C@H](O)C[C@@H]4C[C@H](O)CC[C@]4(C)[C@H]3CC[C@]12C [Chenodiol] | 8000 | Positive | Extensive | Positive | POS | POS | POS | Cholestatic injury |  |  |  |  |  |
| Cc1cc(C2CCCCC2)n(O)c(=O)c1 [Ciclopirox] | 373 | Negative | Extensive | Negative | NEG | NEG | NEG | Non-hepatotoxic |  |  |  |  |  |
| NCCc1ccc(O)c(O)c1 [Dopamine] | 121 | Negative | Extensive | Negative |  |  |  |  | NEG | DILI negative | NEG | Non-hepatotoxic | FDA (0-8) ([5]; in vivo): 0; Xu et al. (2008) ([5]; in vivo): Negative |
| NCC1(CC(=O)O)CCCCC1 [Gabapentin] |  | Negative | Minimal |  | NEG | NEG | NEG | Non-hepatotoxic |  |  |  |  | Cmax ([1]; human, in vivo): 14400 nM; 2Dsw (Xu 2008) 100x [4]: Negative; Suzuki et al. (2010) ([5]; DILI classification score, ref Suzuki et al. (2010)): 1; FDA (0-8) [5, 12]: 3; Xu et al. (2008) [5, 13]: Negative |
| O=C(OCC(O)CO)c1ccccc1Nc1ccnc2cc(Cl)ccc12 (stereo not drawn) [Glafenine] | 1880 | Negative | Extensive | Negative |  |  |  |  | POS | Severe DILI | POS | Hepatocellular injury | FDA (0-8) ([5]; in vivo): Withdrawn; FDA (Severity) ([5]; in vivo): most DILI concern; Sakatis et al. (2012) ([5]; in vivo): Hepatotoxic; Xu et al. (2008) ([5]; in vivo): Positive |
| CC(C)NCC(O)c1ccc(O)c(O)c1 (stereo not drawn) [Isoproterenol] | 2020 | Negative | Moderate | Negative |  |  |  |  | NEG | DILI negative | NEG | Non-hepatotoxic | FDA (0-8) ([5]; in vivo): 0; O'Brien et al. (2003) ([5]; in vivo): Non-toxic; Xu et al. (2008) ([5]; in vivo): Negative |
| Sc1ncnc2nc[nH]c12 [Mercaptopurine] | 480 | Positive | Extensive | Negative |  |  |  |  | POS | Severe DILI | POS | Cholestatic injury or Mixed hepatitis | FDA (0-8) ([5]; in vivo): 8; FDA (Severity) ([5]; in vivo): most DILI concern; Guo et al. (2005) ([5]; in vivo): 3; O'Brien et al. (2003) ([5]; in vivo): Severely; Sakatis et al. (2012) ([5]; in vivo): Hepatotoxic; Suzuki et al. (2010) ([5]; in vivo): 2; Xu et al. (2008) ([5]; in vivo): Positive |
| COC(=O)C1=C(C)NC(C)=C(C(=O)OCC(C)C)C1c1ccccc1[N+](=O)[O-] (stereo not drawn) [Nisoldipine] | 13 | Negative | Extensive | Negative |  |  |  |  |  |  |  |  |  |
| CNC(=O)Oc1ccc2c(c1)[C@]1(C)CCN(C)[C@@H]1N2C [Physostigmine] |  | Negative | Extensive |  | NEG | NEG | NEG | Non-hepatotoxic |  |  |  |  | Cmax ([1]; human, in vivo): 18 nM; FDA (0-8) [5, 12]: 0; Xu et al. (2008) [5, 13]: Negative; O'Brien et al. (2003) ([5]; in vivo): Non-toxic |
| CC(C)(C)c1ccc(C(O)CCCN2CCC(C(O)(c3ccccc3)c3ccccc3)CC2)cc1 (stereo not drawn) [Terfenadine] | 4.5 |  | Extensive | Negative |  |  |  |  | NEG | DILI negative | NEG | Non-hepatotoxic |  |
